Laboratory results taken from US20230093399A1, “METHODS FOR GENERATING PLURIPOTENT STEM CELL-DERIVED BROWN FAT CELLS” (AgeX Therapeutics, Inc., priority 2013, published 2023).

Tests used:
NP110SM cells = test: Differentiation of clonal embryonic progenitor line NP110SM in HyStem beads, Illumina microarray gene expression; format: cell-based, human; settings: NP110SM; 10 M CL316243 together with 50 ng/ml BMP4 and 5.0 μM rosiglitazone; FIG. 15 lane 9
Method: (§1) Differentiation medium is high glucose DMEM (CellGro Cat. No. 15-013-CV) with Pyruvate, 1 mM (Gibco Cat. 11360), Pen:Strep 100U/ml:100 ug/ml (Gibco Cat. No. 504284), Glutamax 2 mM (Gibco Cat. No. 35050), Dexamethasone 0.1 uM (Sigma, St. Louis, Mo., Cat. No. D1756-100), L-Proline 0.35 mM (Sigma Cat. No. D49752), 2-phospho-L-Ascorbic Acid 0.17 mM (Sigma, Cat. No. 49792, Fluka), and ITS Premix (BD, Franklin Lakes, N.J., sterile Cat. No. 47743-628) with a final concentration 6.25 ug/ml insulin, 6.25 ug/ml transferrin, 6.25 ng/ml selenious acid, serum albumin 1.25 mg/ml, 5.35 ug/ml linoleic acid. In various differentiation conditions, the Differentiation medium is supplemented with various growth factors or other differentiation factors as described herein.
HyStem-C (BioTime, Inc. Alameda, Calif.) is a matrix composed of thiol-modified gelatin and thiolated hyaluronan crosslinked in vivo or in vitro with (polyethylene glycol diacrylate (PEGDA). We observed that clonal human embryonic progenitor cell lines such as those described in the present invention, could be efficiently differentiated in high-density cultures of said crosslinked collagen and hyaluronate in the following manner. HyStem-C® (BioTime, CA, USA) is reconstituted following the manufacturer's instructions. Briefly, the HyStem component (10 mg of thiol-modified hyaluronan) is dissolved in 1.0 ml of degassed deionized water for approximately 20 min to prepare a 1% w/v solution. The Gelin-S® component (10 mg of thiol-modified gelatin (BioTime)) is dissolved in 1.0 ml of degassed deionized water to prepare a 1% w/v solution, and polyethylene glycol diacrylate (10 mg of PEGDA) is dissolved in 0.5 ml of degassed deionized water to prepare a 2% w/v solution. Then, HyStem (1 ml, 1% w/v) is mixed with Gelin-S (1 ml, 1% w/v) immediately before use. Pelleted cells are resuspended in the recently prepared HyStem:Gelin-S (1:1 v/v) mix described above. Upon the addition of the PEGDA cross-linker, the cell suspension, at a final concentration of 2.0×10^7 cells/ml is aliquoted (25 μl/aliquot) into six-well plates (Corning® 3516; VWR, PA, USA) after partial gelation. Following complete gelation (20 min), Differentiation Medium is added to each well. Plates were then placed in a humidified incubator at 37° C. with ambient O2 and 10% CO2, and the cells were fed three-times weekly. At the desired time point, hydrogel constructs were either fixed and processed for immunohistochemical analysis or lysed using RLT (Qiagen, CA, USA) with 1% beta-mercaptoethanol for total RNA to analyze transcript expression using quantitative real-time PCR (qRT-PCR) and/or whole-genome microarray.
(§2) Total RNA was extracted directly from cells growing in 6-well plates or 10 cm tissue culture dishes using Qiagen RNeasy mini kits according to the manufacturer's instructions. RNA concentrations were measured using a Beckman DU530 or Nanodrop spectrophotometer and RNA quality was determined by denaturing agarose gel electrophoresis or using an Agilent 2100 bioanalyzer. Whole-genome expression analysis was carried out using Illumina Human Ref-8v3 or Human HT-12 v4 BeadArrays, and RNA levels for certain genes were confirmed by qRT-PCR. For the Illumina BeadArrays, total RNA was linearly amplified and biotin-labeled using Illumina TotalPrep kits (Life Technologies, Temecula, Calif., USA), and cRNA was quality-controlled using an Agilent 2100 Bioanalyzer. The cRNA was hybridized to Illumina BeadChips, processed, and read using a BeadStation array reader according to the manufacturer's instructions (Illumina, San Diego, Calif., USA). Values of less than 120 relative fluorescence units (RFUs) were considered as nonspecific background signal.
The line NP110SM was then exposed to differentiation in the BAT cell differentiation protocols described herein. […]

cell line E3 = test: Differentiation of clonal hEP cell line E3 in HyStem beads, Illumina microarray gene expression; format: cell-based, human
Method: as §1
(§3) The Gelin-S® component (10 mg of thiol-modified gelatin (BioTime)) is dissolved in 1.0 ml of degassed deionized water to prepare a 1% w/v solution, and polyethylene glycol diacrylate (10 mg of PEGDA) is dissolved in 0.5 ml of degassed deionized water to prepare a 2% w/v solution. Then, HyStem (1 ml, 1% w/v) is mixed with Gelin-S (1 ml, 1% w/v) immediately before use. Pelleted cells are resuspended in the recently prepared HyStem:Gelin-S (1:1 v/v) mix described above. Upon the addition of the PEGDA cross-linker, the cell suspension, at a final concentration of 2.0×10^7 cells/ml is aliquoted (25 μl/aliquot) into six-well plates (Corning® 3516; VWR, PA, USA) after partial gelation. Following complete gelation (20 min), Differentiation Medium is added to each well. Plates were then placed in a humidified incubator at 37° C. with ambient O2 and 10% CO2, and the cells were fed three-times weekly. At the desired time point, hydrogel constructs were either fixed and processed for immunohistochemical analysis or lysed using RLT (Qiagen, CA, USA) with 1% beta-mercaptoethanol for total RNA to analyze transcript expression using quantitative real-time PCR (qRT-PCR) and/or whole-genome microarray.
as §2

cell line E72 = test: Differentiation of cell line E72 in HyStem, gene expression; format: cell-based, human; settings: E72 passage 11; HyStem-C supplemented with 1.0 uM all-trans retinoic acid
Method: HyStem-C (BioTime, Inc. Alameda, Calif.) (BioTime, Alameda, Calif., USA) was reconstituted following the manufacturer's instructions. Briefly, the HyStem component (thiol modified hyaluronan, 10 mg) was dissolved in 1.0 ml degassed deionized water for about 20 minutes to prepare a 1% w/v solution. The Gelin-S component (thiol modified gelatin, 10 mg) was dissolved in 1 ml degassed deionized water to prepare a 1% w/v solution, and PEGDA (PEG diacrylate, 10 mg) was dissolved in 0.5 ml degassed deionized water to prepare a 2% w/v solution. HyStem (1 ml, 1% w/v) was mixed with Gelin-S (1 ml, 1% w/v) immediately before use. Pelleted cells were resuspended in recently prepared HyStem:Gelin-S (1:1 v/v) mix described above. Upon the addition of crosslinker PEGDA, the cell suspension, at a final concentration of 2.0×10^7 cells/ml, was aliquoted at 25 μl aliquot four to five times into each well of 6 well plates (Corning 3516) after partial gelation to form attached beads. Following complete gelation (20 minutes), chondrogenic medium was added to each well (i.e about 4 ml/each well of a 6 well plate). […]
The Gelin-S® component (10 mg of thiol-modified gelatin (BioTime)) is dissolved in 1.0 ml of degassed deionized water to prepare a 1% w/v solution, and polyethylene glycol diacrylate (10 mg of PEGDA) is dissolved in 0.5 ml of degassed deionized water to prepare a 2% w/v solution. […] At the desired time point, hydrogel constructs were either fixed and processed for immunohistochemical analysis or lysed using RLT (Qiagen, CA, USA) with 1% beta-mercaptoethanol for total RNA to analyze transcript expression using quantitative real-time PCR (qRT-PCR) and/or whole-genome microarray.
Total RNA was extracted directly from cells growing in 6-well plates or 10 cm tissue culture dishes using Qiagen RNeasy mini kits according to the manufacturer's instructions. RNA concentrations were measured using a Beckman DU530 or Nanodrop spectrophotometer and RNA quality was determined by denaturing agarose gel electrophoresis or using an Agilent 2100 bioanalyzer. […] The cRNA was hybridized to Illumina BeadChips, processed, and read using a BeadStation array reader according to the manufacturer's instructions (Illumina, San Diego, Calif., USA).

[1] = system: Bone marrow-derived mesenchymal stem cells (MSCs); test: Differentiation of bone marrow-derived MSCs in HyStem-C beads, FABP4 expression; format: cell-based; settings: 14 days, 50 ng/mL BMP2, or 10 ng/mL BMP4, or 100 ng/mL BMP7
Method: as §3

With `C[C@H](Cc1ccc2c(c1)OC(C(=O)[O-])(C(=O)[O-])O2)NC[C@H](O)c1cccc(Cl)c1.[Na+].[Na+]` [CL316243, reference compound] as the molecule, how does the UCP1 expression (NP110SM cells) read?
The UCP1 expression was “appeared to further increase”.

For `O=C(Nc1ccncc1)c1cc([N+](=O)[O-])ccc1Cl` [T0070907, reference compound], which C19ORF80 expression (cell line E3; HyStem with 10 ng/ml BMP4 plus T0070907, compared to HyStem BMP4 alone, cell line not restated) is on record?
Its C19ORF80 expression is “decreased C19ORF80 expression”.

What about the THRSP expression (cell line E3; presence of the PPARγ antagonist T0070907, FIG. 7, cell line not restated) of the same molecule?
The THRSP expression was “decreased to nearly undetectable levels”.

Which “expression of HOXB6, a marker of lateral plate mesenchyme” value (cell line E72) does the source give for `CC1=C(/C=C/C(C)=C/C=C/C(C)=C/C(=O)O)C(C)(C)CCC1` [all-trans retinoic acid, reference compound] here?
The value was “induced the expression of HOXB6”.

Which ADIPOQ transcript expression (cell line E3; E3, HyStem beads with 1.0 μM rosiglitazone, FIG. 3) does the source give for `CN(CCOc1ccc(CC2SC(=O)NC2=O)cc1)c1ccccn1` (stereo not drawn) [rosiglitazone, reference compound] here?
The ADIPOQ transcript expression was > 5,000 RFUs.

What about the UCP1 transcript expression (cell line E3; E3, HyStem beads, 1.0 μM rosiglitazone in combination with 100 ng/ml BMP7, values greater than 160 RFUs above background) of the same molecule?
Its UCP1 transcript expression is 161 RFUs.

B1: BMP7: Bone Morphogenetic Protein 7, TGF-beta superfamily member (protein, UniProt P18075 293-431, looked up)
Bone morphogenetic protein 7: STGSKQRSQNRSKTPKNQEALRMANVAENSSSDQRQACKKHELYVSFRDLGWQDWIIAPEGYAAYYCEGECAFPLNSYMNATNHAIVQTLVHFINPETVPKPCCAPTQLNAISVLYFDDSSNVILKKYRNMVVRACGCH
Which results are given for B1?
differentiation into adipocytes as evidenced by expression of FABP4 [1]: caused the differentiation of the cells into adipocytes; PCK1 transcript expression (cell line E3; E3, HyStem beads with 10 ng/ml BMP4 or 100 ng/ml BMP7, FIG. 5): relatively high levels; expression of C19ORF80 (cell line E3; E3, HyStem supplemented with 100 ng/ml BMP7): highest expression
